From patent US20050282743A1, “Molecular interactions in cells” (Arbor Vita Corporation, priority 2001, published 2005)
Ends that are not written are not given here. Peptide text beside a SMILES is read from it. * marks the point of attachment. Biotin = O=C1N[C@H]2[C@H](CS[C@H]2CCCCC(=O)*)N1

Columns and labels:
Experiment in all cases: G' assay (10 uM PL peptide), results of TABLE 7 and TABLE 12
Assay type in all cases: binding
[1] = biological target: T1, PDZ protein (GST-PDZ fusion) (Homo sapiens, UniProt Q12923)
T1 construct: made in house; host or cells: E. coli (DH5alpha, BL21 or JM109)
Summary of the method: (§1)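 Same steps as the G-zero format, apart from a peptide concentration of 10 uM in place of 20 uM in step 2. Amino-terminally biotinylated PL peptides bind GST-PDZ fusions, and retained peptide is quantified by 450 nm absorbance.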

[2] = system: PDZ protein (GST-PDZ fusion)
Summary of the method: as §1

[3] = biological target: T2, PDZ protein (GST-PDZ fusion) (Homo sapiens, UniProt Q5TCQ9)
T2 construct: made in house; host or cells: E. coli (DH5alpha, BL21 or JM109)
T2 sequence (Q5TCQ9 1-1481): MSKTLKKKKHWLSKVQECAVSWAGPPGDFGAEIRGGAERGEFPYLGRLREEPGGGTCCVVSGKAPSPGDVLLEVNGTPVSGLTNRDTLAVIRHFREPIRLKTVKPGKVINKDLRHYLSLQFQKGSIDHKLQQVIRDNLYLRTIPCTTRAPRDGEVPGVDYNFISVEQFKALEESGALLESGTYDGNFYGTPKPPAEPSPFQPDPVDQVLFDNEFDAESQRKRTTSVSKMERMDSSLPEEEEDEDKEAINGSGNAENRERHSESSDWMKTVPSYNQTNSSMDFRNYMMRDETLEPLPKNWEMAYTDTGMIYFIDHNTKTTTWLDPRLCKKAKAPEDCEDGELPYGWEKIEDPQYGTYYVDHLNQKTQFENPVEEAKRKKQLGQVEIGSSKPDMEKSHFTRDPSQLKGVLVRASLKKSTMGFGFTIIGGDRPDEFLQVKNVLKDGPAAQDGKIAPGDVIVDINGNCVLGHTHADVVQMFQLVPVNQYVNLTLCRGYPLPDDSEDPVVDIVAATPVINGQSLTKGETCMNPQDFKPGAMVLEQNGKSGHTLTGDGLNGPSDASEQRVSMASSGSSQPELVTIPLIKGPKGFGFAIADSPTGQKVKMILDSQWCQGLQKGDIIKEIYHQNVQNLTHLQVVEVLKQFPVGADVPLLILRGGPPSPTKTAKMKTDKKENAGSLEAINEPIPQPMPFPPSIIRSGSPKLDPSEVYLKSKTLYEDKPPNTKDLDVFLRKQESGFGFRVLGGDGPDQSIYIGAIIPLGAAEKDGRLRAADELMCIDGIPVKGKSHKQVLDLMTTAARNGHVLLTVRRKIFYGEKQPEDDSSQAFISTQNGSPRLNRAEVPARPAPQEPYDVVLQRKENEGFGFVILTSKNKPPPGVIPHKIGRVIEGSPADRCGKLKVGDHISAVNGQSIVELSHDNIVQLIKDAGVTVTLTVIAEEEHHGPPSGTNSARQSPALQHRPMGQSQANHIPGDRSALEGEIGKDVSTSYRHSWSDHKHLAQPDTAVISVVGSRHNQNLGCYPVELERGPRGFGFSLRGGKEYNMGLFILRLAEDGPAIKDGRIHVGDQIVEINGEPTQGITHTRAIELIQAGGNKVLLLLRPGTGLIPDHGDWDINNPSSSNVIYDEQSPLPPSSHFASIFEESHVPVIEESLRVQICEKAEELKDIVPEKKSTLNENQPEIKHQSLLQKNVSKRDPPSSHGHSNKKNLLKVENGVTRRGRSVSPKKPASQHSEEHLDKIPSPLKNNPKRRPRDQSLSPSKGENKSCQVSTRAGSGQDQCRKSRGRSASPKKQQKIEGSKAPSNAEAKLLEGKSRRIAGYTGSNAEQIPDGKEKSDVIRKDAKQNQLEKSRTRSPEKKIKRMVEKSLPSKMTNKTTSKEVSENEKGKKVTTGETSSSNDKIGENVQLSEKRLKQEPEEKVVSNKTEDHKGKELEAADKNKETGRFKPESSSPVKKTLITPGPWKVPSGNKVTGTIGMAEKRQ
Summary of the method: as §1

[4] = biological target: T3, PDZ protein (GST-PDZ fusion) (Homo sapiens, UniProt Q6P0Q8)
T3 construct: made in house; host or cells: E. coli (DH5alpha, BL21 or JM109)
Summary of the method: as §1

[5] = PDZ HEMBA 1003117, PDZ Domain 1
[6] = PDZ KIAA807, PDZ Domain not given
[7] = PDZ Unnamed Protein, PDZ Domain 2

T3 sequence (Q6P0Q8 whole entry, the tested form may be a part): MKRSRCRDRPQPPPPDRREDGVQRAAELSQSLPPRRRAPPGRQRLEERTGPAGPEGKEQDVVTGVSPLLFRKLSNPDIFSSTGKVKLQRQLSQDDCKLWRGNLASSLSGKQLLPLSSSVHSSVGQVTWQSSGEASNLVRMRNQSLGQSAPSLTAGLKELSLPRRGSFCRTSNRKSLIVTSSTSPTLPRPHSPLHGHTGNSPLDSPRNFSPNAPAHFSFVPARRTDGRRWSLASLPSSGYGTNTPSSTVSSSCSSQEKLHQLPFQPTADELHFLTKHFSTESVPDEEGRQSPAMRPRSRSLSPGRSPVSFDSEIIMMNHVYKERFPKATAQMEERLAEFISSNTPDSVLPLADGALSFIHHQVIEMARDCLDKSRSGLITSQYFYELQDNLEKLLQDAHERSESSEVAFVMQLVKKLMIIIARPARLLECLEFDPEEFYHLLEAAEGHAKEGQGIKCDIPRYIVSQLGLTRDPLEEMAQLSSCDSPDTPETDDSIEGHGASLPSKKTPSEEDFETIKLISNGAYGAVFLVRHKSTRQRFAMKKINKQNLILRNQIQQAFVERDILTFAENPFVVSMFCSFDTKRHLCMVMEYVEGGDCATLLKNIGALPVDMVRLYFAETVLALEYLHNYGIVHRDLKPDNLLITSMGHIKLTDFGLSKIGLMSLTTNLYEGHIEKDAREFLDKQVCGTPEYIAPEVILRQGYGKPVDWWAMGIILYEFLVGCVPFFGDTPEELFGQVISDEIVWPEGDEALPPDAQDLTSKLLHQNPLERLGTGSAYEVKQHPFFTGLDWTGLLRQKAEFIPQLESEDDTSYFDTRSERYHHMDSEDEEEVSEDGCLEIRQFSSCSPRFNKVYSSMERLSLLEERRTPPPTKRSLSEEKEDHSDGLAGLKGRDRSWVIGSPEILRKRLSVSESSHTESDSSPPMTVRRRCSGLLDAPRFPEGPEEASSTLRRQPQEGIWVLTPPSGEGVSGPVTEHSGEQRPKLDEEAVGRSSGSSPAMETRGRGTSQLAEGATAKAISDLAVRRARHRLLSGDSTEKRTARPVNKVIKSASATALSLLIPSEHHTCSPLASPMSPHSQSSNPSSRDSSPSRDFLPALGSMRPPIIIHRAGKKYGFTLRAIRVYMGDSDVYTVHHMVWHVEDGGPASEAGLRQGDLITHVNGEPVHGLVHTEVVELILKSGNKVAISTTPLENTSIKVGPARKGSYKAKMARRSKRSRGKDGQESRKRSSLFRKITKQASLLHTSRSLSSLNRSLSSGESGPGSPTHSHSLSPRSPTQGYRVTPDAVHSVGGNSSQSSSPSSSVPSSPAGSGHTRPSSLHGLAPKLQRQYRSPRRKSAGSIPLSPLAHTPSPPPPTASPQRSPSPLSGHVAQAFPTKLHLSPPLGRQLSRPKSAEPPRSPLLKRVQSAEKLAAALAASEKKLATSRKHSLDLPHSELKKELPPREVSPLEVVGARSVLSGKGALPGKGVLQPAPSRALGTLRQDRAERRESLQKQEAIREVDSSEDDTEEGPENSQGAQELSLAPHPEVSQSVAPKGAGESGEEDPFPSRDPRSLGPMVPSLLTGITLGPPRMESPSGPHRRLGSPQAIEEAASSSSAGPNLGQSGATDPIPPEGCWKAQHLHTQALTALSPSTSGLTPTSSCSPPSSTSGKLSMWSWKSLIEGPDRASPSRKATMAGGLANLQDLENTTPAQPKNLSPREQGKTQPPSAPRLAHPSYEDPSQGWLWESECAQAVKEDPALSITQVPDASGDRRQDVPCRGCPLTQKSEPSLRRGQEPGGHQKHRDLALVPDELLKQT
T1 sequence (Q12923 whole entry, the tested form may be a part): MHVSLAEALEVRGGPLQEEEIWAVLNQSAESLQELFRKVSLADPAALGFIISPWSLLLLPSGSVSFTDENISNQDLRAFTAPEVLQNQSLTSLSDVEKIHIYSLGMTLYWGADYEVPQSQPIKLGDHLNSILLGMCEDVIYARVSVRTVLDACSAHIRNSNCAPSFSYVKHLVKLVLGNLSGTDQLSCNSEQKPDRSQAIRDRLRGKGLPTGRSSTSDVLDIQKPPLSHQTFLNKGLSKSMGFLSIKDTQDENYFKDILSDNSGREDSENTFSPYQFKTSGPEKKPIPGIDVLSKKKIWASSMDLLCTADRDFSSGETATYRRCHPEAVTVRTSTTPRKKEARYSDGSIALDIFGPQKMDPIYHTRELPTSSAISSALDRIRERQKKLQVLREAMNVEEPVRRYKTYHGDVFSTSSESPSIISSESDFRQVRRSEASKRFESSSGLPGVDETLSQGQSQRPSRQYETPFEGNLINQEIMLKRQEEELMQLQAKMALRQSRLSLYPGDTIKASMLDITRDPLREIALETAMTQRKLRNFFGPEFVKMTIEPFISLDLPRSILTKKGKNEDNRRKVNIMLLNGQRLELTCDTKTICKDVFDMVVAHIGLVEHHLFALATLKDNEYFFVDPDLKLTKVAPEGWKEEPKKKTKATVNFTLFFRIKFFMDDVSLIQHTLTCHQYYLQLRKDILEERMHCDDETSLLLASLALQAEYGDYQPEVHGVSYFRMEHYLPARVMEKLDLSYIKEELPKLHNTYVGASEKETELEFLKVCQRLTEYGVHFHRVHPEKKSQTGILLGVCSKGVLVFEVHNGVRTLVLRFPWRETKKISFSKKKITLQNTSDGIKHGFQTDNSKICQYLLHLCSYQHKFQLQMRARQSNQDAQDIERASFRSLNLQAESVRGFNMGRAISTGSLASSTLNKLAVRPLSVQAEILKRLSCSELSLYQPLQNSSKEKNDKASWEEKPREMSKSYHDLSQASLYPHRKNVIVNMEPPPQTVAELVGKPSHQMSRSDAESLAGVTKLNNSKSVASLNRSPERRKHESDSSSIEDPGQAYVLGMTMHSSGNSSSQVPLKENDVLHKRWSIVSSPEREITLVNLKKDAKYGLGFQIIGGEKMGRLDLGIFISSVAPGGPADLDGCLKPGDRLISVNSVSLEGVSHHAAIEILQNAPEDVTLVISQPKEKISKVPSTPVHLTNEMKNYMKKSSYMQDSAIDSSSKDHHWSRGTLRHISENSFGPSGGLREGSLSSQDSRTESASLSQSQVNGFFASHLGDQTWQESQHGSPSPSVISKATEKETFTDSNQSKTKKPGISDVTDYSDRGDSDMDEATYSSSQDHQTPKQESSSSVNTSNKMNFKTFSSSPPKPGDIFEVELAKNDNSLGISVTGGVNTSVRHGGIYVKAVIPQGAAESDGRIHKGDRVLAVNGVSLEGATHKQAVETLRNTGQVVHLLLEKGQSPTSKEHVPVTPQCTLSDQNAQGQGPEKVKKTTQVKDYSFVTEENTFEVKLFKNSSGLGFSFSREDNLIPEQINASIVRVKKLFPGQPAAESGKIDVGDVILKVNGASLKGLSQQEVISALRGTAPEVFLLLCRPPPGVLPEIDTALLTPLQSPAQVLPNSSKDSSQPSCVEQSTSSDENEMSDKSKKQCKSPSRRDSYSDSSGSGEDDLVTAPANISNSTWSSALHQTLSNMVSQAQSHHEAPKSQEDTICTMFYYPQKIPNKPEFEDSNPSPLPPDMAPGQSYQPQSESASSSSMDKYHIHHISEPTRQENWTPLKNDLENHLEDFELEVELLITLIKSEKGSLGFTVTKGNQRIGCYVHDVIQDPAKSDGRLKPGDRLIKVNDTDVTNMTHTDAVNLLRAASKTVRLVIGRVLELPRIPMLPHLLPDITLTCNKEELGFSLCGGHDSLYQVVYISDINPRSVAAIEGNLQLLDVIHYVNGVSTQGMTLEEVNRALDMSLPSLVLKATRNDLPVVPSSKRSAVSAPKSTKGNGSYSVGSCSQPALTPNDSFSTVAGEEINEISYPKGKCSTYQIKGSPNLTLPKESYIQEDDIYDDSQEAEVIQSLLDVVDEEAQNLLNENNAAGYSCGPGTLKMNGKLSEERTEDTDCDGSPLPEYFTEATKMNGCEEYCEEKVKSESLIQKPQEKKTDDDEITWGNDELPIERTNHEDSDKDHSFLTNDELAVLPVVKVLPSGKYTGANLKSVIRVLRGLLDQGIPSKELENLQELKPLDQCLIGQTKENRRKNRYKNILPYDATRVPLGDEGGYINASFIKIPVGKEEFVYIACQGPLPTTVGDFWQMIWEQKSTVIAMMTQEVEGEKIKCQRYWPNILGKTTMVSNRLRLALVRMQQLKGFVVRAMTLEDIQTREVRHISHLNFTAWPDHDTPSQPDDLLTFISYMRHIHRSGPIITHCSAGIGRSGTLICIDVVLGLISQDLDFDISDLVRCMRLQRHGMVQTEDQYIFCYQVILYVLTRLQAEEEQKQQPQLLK

Compound | Classification ([1]; PDZ PTPL-1, PDZ Domain 4) | Classification ([4]; PDZ KIAA0807(S), PDZ Domain 1) | Classification ([3]; PDZ KIAA1634, PDZ Domain 1) | Classification [2, 5] | Classification ([2]; PDZ BAI-1, PDZ Domain 2) | also measured
GPVPGEPAKPKTSAHHATFV (Biotin-GPVPGEPAKPKTSAHHATFV) | 1 (A450 nm 0-1) |  |  | 1 (A450 nm 0-1) |  | 
A2AC_HUMAN (Modified) (Biotin-DFRPSFKHILFRRARRGFRQ; not fully specified) |  |  |  |  |  | Classification ([1]; PDZ PTPL-1, PDZ Domain 5): 3 (A450 nm 2-3)
SLKPGTVLPPPPYRHRNTVV (Biotin-SLKPGTVLPPPPYRHRNTVV) [ErbB-4 receptor] |  |  |  |  |  | Classification ([1]; PDZ PTPL-1, PDZ Domain 2): 2 (A450 nm 1-2); Classification ([3]; PDZ KIAA1634, PDZ Domain 2): 1 (A450 nm 0-1); Classification ([2]; PDZ BAI-1, PDZ Domain 3): 1 (A450 nm 0-1)
CC(C)C[C@H](NC(=O)[C@H](C)NC(=O)[C@@H](NC(=O)[C@@H](NC(=O)[C@H](Cc1c[nH]cn1)NC(=O)[C@H](CC(C)C)NC(=O)CNC(=O)[C@H](CCC(N)=O)NC(=O)CNC(=O)CNC(=O)[C@H](C)NC(=O)[C@H](C)NC(=O)[C@H](CCCNC(=N)N)NC(=O)[C@H](C)NC(=O)[C@H](CO)NC(=O)[C@H](CC(=O)O)NC(=O)[C@H](CC(=O)O)NC(=O)[C@H](Cc1c[nH]c2ccccc12)NC(=O)[C@H](C)NC(=O)CCCC[C@@H]1SC[C@@H]2NC(=O)N[C@@H]21)C(C)C)[C@@H](C)O)C(=O)O [LPAP] (Biotin-AWDDSARAAGGQGLHVTAL-OH; C-terminus assumed) |  |  |  | 1 (A450 nm 0-1) | 2 (A450 nm 1-2) | Classification ([1]; PDZ PTPL-1, PDZ Domain 2): 1 (A450 nm 0-1); Classification ([4]; PDZ KIAA807): 5 (A450 nm of 4 more than 2× repeated); Classification ([2]; PDZ FLJ 00011, PDZ Domain 1): 4 (A450 nm 3-4); Classification ([2]; PDZ SHANK, PDZ Domain 1): 3 (A450 nm 2-3); Classification [2, 7]: 3 (A450 nm 2-3)
CC(C)C[C@H](NC(=O)[C@H](C)NC(=O)[C@@H](NC(=O)[C@H](CCC(=O)O)NC(=O)[C@H](CCCNC(=N)N)NC(=O)[C@H](CCCNC(=N)N)NC(=O)CNC(=O)[C@H](CCC(N)=O)NC(=O)[C@H](CC(C)C)NC(=O)[C@H](CCCNC(=N)N)NC(=O)CNC(=O)CNC(=O)[C@H](CCCNC(=N)N)NC(=O)[C@H](C)NC(=O)[C@H](CO)NC(=O)[C@H](CCCNC(=N)N)NC(=O)CNC(=O)CNC(=O)[C@H](C)NC(=O)[C@H](C)NC(=O)CCCC[C@@H]1SC[C@@H]2NC(=O)N[C@@H]21)[C@@H](C)O)C(=O)O [HPV E6 33 (modified)] (Biotin-AAGGRSARGGRLQGRRETAL-OH; C-terminus assumed) |  | 5 (A450 nm of 4 more than 2× repeated) | 5 (A450 nm of 4 more than 2× repeated) |  | 5 (A450 nm of 4 more than 2× repeated) | Classification ([2]; PDZ BAI-1, PDZ Domain 5): 1 (A450 nm 0-1); Classification ([2]; PDZ BAI-1, PDZ Domain 6): 1 (A450 nm 0-1); Classification ([2]; PDZ FLJ 00011, PDZ Domain 1): 1 (A450 nm 0-1); Classification ([2]; PDZ SHANK, PDZ Domain 1): 4 (A450 nm 3-4)
CC[C@H](C)[C@H](NC(=O)[C@H](CO)NC(=O)[C@@H](NC(=O)[C@H](Cc1ccccc1)NC(=O)[C@H](CO)NC(=O)CCCC[C@@H]1SC[C@@H]2NC(=O)N[C@@H]21)[C@@H](C)O)C(=O)N[C@@H](CC(C)C)C(=O)N[C@H](C(=O)N[C@@H](CS)C(=O)N[C@@H](Cc1c[nH]cn1)C(=O)N[C@@H](CCC(N)=O)C(=O)N[C@@H](CCCNC(=N)N)C(=O)N[C@@H](CCCNC(=N)N)C(=O)N[C@H](C(=O)N[C@@H](CCC(N)=O)C(=O)N[C@@H](CCCNC(=N)N)C(=O)N[C@@H](CCCCN)C(=O)N[C@@H](CCC(=O)O)C(=O)N[C@H](C(=O)N[C@H](C(=O)N[C@@H](C)C(=O)O)C(C)C)[C@@H](C)O)[C@@H](C)O)[C@@H](C)O [GluR5-2 (rat)] |  | 1 (A450 nm 0-1) | 5 (A450 nm of 4 more than 2× repeated) |  | 5 (A450 nm of 4 more than 2× repeated) | 
CC[C@H](C)[C@H](NC(=O)[C@H](Cc1ccc(O)cc1)NC(=O)[C@@H](NC(=O)[C@@H]1CCCN1C(=O)[C@H](CCC(N)=O)NC(=O)[C@H](CCC(=O)O)NC(=O)[C@H](CCC(N)=O)NC(=O)[C@H](C)NC(=O)[C@@H](NC(=O)[C@H](CC(C)C)NC(=O)[C@H](CC(C)C)NC(=O)[C@H](CCCNC(=N)N)NC(=O)[C@H](Cc1ccc(O)cc1)NC(=O)[C@H](CCSC)NC(=O)[C@H](C)NC(=O)[C@H](C)NC(=O)[C@@H]1CCCN1C(=O)[C@H](CCSC)NC(=O)[C@@H](NC(=O)[C@H](CCCCN)NC(=O)CCCC[C@@H]1SC[C@@H]2NC(=O)N[C@@H]21)[C@@H](C)O)[C@@H](C)O)C(C)C)C(=O)O [MINT-1] (Biotin-KTMPAAMYRLLTAQEQPVYI-OH; C-terminus assumed) | 5 (A450 nm of 4 more than 2× repeated) | 5 (A450 nm of 4 more than 2× repeated) |  | 3 (A450 nm 2-3) |  | Classification [4, 6]: 4 (A450 nm 3-4)

Continued, in another order:

Classification ([1]; PDZ PTPL-1, PDZ Domain 4) | Classification ([4]; PDZ KIAA0807(S), PDZ Domain 1) | Classification ([3]; PDZ KIAA1634, PDZ Domain 1) | Compound | Classification [2, 5] | Classification ([2]; PDZ BAI-1, PDZ Domain 2) | also measured
4 (A450 nm 3-4) | 4 (A450 nm 3-4) |  | KTMPAAMFRLLTGQETPLYI (Biotin-KTMPAAMFRLLTGQETPLYI) [MINT-2] | 3 (A450 nm 2-3) |  | Classification [4, 6]: 3 (A450 nm 2-3)
 | 5 (A450 nm of 4 more than 2× repeated) | 2 (A450 nm 1-2) | ALVLIAFCIIRRRPSAYQAL (Biotin-ALVLIAFCIIRRRPSAYQAL) [CD68] |  | 3 (A450 nm 2-3) | Classification ([2]; PDZ SHANK, PDZ Domain 1): 1 (A450 nm 0-1)
 | 1 (A450 nm 0-1) |  | A2AA_HUMAN (modified) (Biotin-HDFRRAFKKILARGDRKRIV; not fully specified) | 1 (A450 nm 0-1) |  | Classification ([1]; PDZ PTPL-1, PDZ Domain 2): 2 (A450 nm 1-2); Classification ([2]; PDZ BAI-1, PDZ Domain 6): 3 (A450 nm 2-3); Classification [2, 7]: 1 (A450 nm 0-1)
2 (A450 nm 1-2) | 1 (A450 nm 0-1) |  | CC[C@H](C)[C@H](NC(=O)[C@H](Cc1ccc(O)cc1)NC(=O)[C@H](CC(C)C)NC(=O)[C@H](CCC(N)=O)NC(=O)[C@H](Cc1c[nH]cn1)NC(=O)[C@H](CO)NC(=O)[C@H](C)NC(=O)[C@H](CC(C)C)NC(=O)[C@@H](NC(=O)[C@H](CC(=O)O)NC(=O)[C@H](CCSC)NC(=O)[C@H](Cc1ccccc1)NC(=O)[C@@H]1CCCN1C(=O)[C@H](CCCNC(=N)N)NC(=O)[C@@H](NC(=O)[C@H](CC(C)C)NC(=O)[C@H](CC(N)=O)NC(=O)[C@H](CC(=O)O)NC(=O)[C@@H](NC(=O)[C@H](CO)NC(=O)CCCC[C@@H]1SC[C@@H]2NC(=O)N[C@@H]21)[C@@H](C)O)C(C)C)[C@@H](C)O)C(=O)O [presenilin-2] (Biotin-STDNLVRPFMDTLASHQLYI-OH; C-terminus assumed) | 4 (A450 nm 3-4) |  | 
 |  | 1 (A450 nm 0-1) | RNIEEVYVGGKQVVPFSSSV (Biotin-RNIEEVYVGGKQVVPFSSSV) [Nedasin (s-form)] |  | 1 (A450 nm 0-1) | Classification ([4]; PDZ KIAA807 (domain not given)): 2 (A450 nm 1-2); Classification ([2]; PDZ BAI-1, PDZ Domain 6): 1 (A450 nm 0-1)
 | 1 (A450 nm 0-1) | 1 (A450 nm 0-1) | APC—adenomatous polyposis coli protein (ESSGTQSPKRHSGSYLVTSV) |  | 1 (A450 nm 0-1) | Classification ([3]; PDZ KIAA1634, PDZ Domain 2): 1 (A450 nm 0-1); Classification ([4]; PDZ KIAA807 (domain not given)): 1 (A450 nm 0-1); Classification ([2]; PDZ BAI-1, PDZ Domain 5): 1 (A450 nm 0-1); Classification ([2]; PDZ FLJ 00011, PDZ Domain 1): 1 (A450 nm 0-1)
